Experimental data published in patent US11535615B2, “Heterocyclic compounds as immunomodulators” (Incyte Corporation, priority 2015, dated 2022).

Target: PD-1/PD-L1 protein/protein interaction (Homo sapiens (Human), UniProt Q9NZQ7)
Test: PD-1/PD-L1 Homogeneous Time-Resolved Fluorescence (HTRF) Binding Assay
Conditions: recombinant human PD-L1 (19-238) His-tag and human PD-1 (25-167) Fc tag; PBS pH 7.4
Method: Example A. PD-1/PD-L1 Homogeneous Time-Resolved Fluorescence (HTRF) Binding Assay
The assays were conducted in a standard black 384-well polystyrene plate with a final volume of 20 μL. Inhibitors were first serially diluted in DMSO and then added to the plate wells before the addition of other reaction components. The final concentration of DMSO in the assay was 1%. The assays were carried out at […] in the PBS buffer (pH 7.4) with 0.05% Tween-20 and 0.1% BSA. Recombinant human PD-L1 protein (19-238) with a His-tag at the C-terminus was purchased from AcroBiosystems (PD1-H5229). Recombinant human PD-1 protein (25-167) with Fc tag at the C-terminus was also purchased from AcroBiosystems (PD1-H5257). PD-L1 and PD-1 proteins were diluted in the assay buffer and 10 μL was added to the plate well. Plates were centrifuged and proteins were preincubated with inhibitors for 40 minutes. The incubation was followed by the addition of 10 μL of HTRF detection buffer supplemented with Europium cryptate-labeled anti-human IgG (PerkinElmer-AD0212) specific for Fc and anti-His antibody conjugated to SureLight®-Allophycocyanin (APC, PerkinElmer-AD0059H). After centrifugation, the plate was incubated at 25° C. for 60 min. before reading on a PHERAstar FS plate reader (665 nm/620 nm ratio). Final concentrations in the assay were […] PD1, 10 nM PD-L1, 1 nM europium anti-human IgG and 20 nM anti-His-Allophycocyanin. IC50 determination was performed by fitting the curve of percent control activity versus the log of the inhibitor concentration using the GraphPad Prism 5.0 software.

Sequence of PD-1/PD-L1 protein/protein interaction (Q9NZQ7 19-238): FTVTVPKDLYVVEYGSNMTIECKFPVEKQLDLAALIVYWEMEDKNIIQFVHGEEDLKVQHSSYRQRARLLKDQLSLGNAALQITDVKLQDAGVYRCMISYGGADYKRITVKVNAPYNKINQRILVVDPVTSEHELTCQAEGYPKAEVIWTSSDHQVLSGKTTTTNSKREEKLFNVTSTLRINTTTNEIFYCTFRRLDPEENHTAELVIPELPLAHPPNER

| SMILES | IC50 [nM] |
| --- | --- |
| Cc1c(Nc2nccc3c(CN4CCCCC4C(=O)O)ccnc23)cccc1-c1ccccc1 (stereo not drawn) [Example 5, 1-({8-[(2-methylbiphenyl-3-yl)amino]-1,7-naphthyridin-4-yl}methyl)piperidine-2-carboxylic Acid] | ≤ 10 |
| Cc1c(Nc2nccc3c(CNCCO)ccnc23)cccc1-c1ccc2c(c1)OCCO2 [Example 12, 2-{[(8-{[3-(2,3-dihydro-1,4-benzodioxin-6-yl)-2-methylphenyl]amino}-1,7-naphthyridin-4-yl)methyl]amino}ethanol] | ≤ 10 |
| Cc1c(Nc2nccc3cc(CN4CCCCC4C(=O)O)cnc23)cccc1-c1ccccc1 (stereo not drawn) [Example 3, 1-({8-[(2-methylbiphenyl-3-yl)amino]-1,7-naphthyridin-3-yl}methyl)piperidine-2-carboxylic Acid] | 10 to 100 |
| Cc1c(Nc2nccc3c(CN4CCCCC4C(=O)O)ccnc23)cccc1-c1ccc2c(c1)OCCO2 (stereo not drawn) [Example 13, 1-[(8-{[3-(2,3-dihydro-1,4-benzodioxin-6-yl)-2-methylphenyl]amino}-1,7-naphthyridin-4-yl)methyl]piperidine-2-carboxylic Acid] | 10 to 100 |
| Cc1c(Nc2nccc3nc(CN4CCCC[C@H]4C(=O)O)cnc23)cccc1-c1ccccc1 [Example 15, (2S)-1-({5-[(2-methylbiphenyl-3-yl)amino]pyrido[3,4-b]pyrazin-2-yl}methyl)piperidine-2-carboxylic Acid] | 10 to 100 |
| N#Cc1c(Nc2nccc3cc(CNCCO)cnc23)cccc1-c1ccc2c(c1)OCCO2 [Example 16, 2-(2,3-dihydro-1,4-benzodioxin-6-yl)-6-[(3-{[(2-hydroxyethyl)amino]methyl}-1,7-naphthyridin-8-yl)amino]benzonitrile] | ≤ 10 |
| Cc1c(Nc2nccc3cc(CNCCO)cnc23)cccc1C1=CCCCC1 [Example 18, 2-[({8-[(3-cyclohex-1-en-1-yl-2-methylphenyl)amino]-1,7-naphthyridin-3-yl}methyl)amino]ethanol] | ≤ 10 |
| N#Cc1c(Nc2nccc3cc(CNCCO)cnc23)cccc1C1CCCCC1 [Example 21, 2-cyclohexyl-6-[(3-{[(2-hydroxyethyl)amino]methyl}-1,7-naphthyridin-8-yl)amino]benzonitrile] | 10 to 100 |
| COc1c(CNCCO)cnc2c(Nc3cccc(-c4ccccc4)c3C)nccc12 [Example 10, 2-[({4-methoxy-8-[(2-methylbiphenyl-3-yl)amino]-1,7-naphthyridin-3-yl}methyl)amino]ethanol] | ≤ 10 |
| Cc1c(Nc2cccc3c(CN4CCCCC4C(=O)O)ccnc23)cccc1-c1ccccc1 (stereo not drawn) [Example 8, 1-({8-[(2-methylbiphenyl-3-yl)amino]quinolin-4-yl}methyl)piperidine-2-carboxylic Acid] | 10 to 100 |
| Cc1c(Nc2ncnc3cc(CN4CCCCC4C(=O)O)cnc23)cccc1-c1ccccc1 (stereo not drawn) [Example 4, 1-({4-[(2-methylbiphenyl-3-yl)amino]pyrido[3,2-d]pyrimidin-7-yl}methyl)piperidine-2-carboxylic Acid] | 10 to 100 |
| Cc1c(Nc2nccc3c(CNCCO)ccnc23)cccc1-c1ccccc1 [Example 6, 2-[({8-[(2-methylbiphenyl-3-yl)amino]-1,7-naphthyridin-4-yl}methyl)amino]ethanol] | 10 to 100 |
| Cc1c(Nc2cccc3c(CNCCO)ccnc23)cccc1-c1ccccc1 [Example 7, 2-[({8-[(2-methylbiphenyl-3-yl)amino]quinolin-4-yl}methyl)amino]ethanol] | 10 to 100 |
| Cc1c(Nc2nccc3cc(CNCCO)cnc23)cccc1-c1ccc2c(c1)OCCO2 [Example 17, 2-{[(8-{[3-(2,3-dihydro-1,4-benzodioxin-6-yl)-2-methylphenyl]amino}-1,7-naphthyridin-3-yl)methyl]amino}ethanol] | ≤ 10 |
| N#Cc1c(Nc2nccc3cc(CNCCO)cnc23)cccc1-c1ccccc1 [Example 19, 3-[(3-{[(2-hydroxyethyl)amino]methyl}-1,7-naphthyridin-8-yl)amino]biphenyl-2-carbonitrile] | ≤ 10 |
| Cc1c(Nc2nccc3c(Cl)c(CN4CCCCC4C(=O)O)cnc23)cccc1-c1ccccc1 (stereo not drawn) [Example 11, 1-({4-chloro-8-[(2-methylbiphenyl-3-yl)amino]-1,7-naphthyridin-3-yl}methyl)piperidine-2-carboxylic Acid] | 10 to 100 |
| Cc1c(Nc2nccc3nc(CNCCO)cnc23)cccc1-c1ccccc1 [Example 14, 2-[({5-[(2-methylbiphenyl-3-yl)amino]pyrido[3,4-b]pyrazin-2-yl}methyl)amino]ethanol] | ≤ 10 |
| Cc1c(Nc2nccc3cc(CNCCO)cnc23)cccc1-c1ccccc1 [Example 2, 2-[({8-[(2-methylbiphenyl-3-yl)amino]-1,7-naphthyridin-3-yl}methyl)amino]ethanol] | ≤ 10 |
| Cc1c(Nc2nccc3c(Cl)c(CNCCO)cnc23)cccc1-c1ccccc1 [Example 9, 2-[({4-chloro-8-[(2-methylbiphenyl-3-yl)amino]-1,7-naphthyridin-3-yl}methyl)amino]ethanol] | 10 to 100 |
| Cc1c(Nc2cccc3cc(CNCCO)cnc23)cccc1-c1ccccc1 [Example 1, 2-[({8-[(2-methylbiphenyl-3-yl)amino]quinolin-3-yl}methyl)amino]ethanol] | 10 to 100 |
| N#Cc1c(Nc2nccc3cc(CNCCO)cnc23)cccc1C1=CCCCC1 [Example 20, 2-cyclohex-1-en-1-yl-6-[(3-{[(2-hydroxyethyl)amino]methyl}-1,7-naphthyridin-8-yl)amino]benzonitrile] | ≤ 10 |
